From patent US10894782B2, “Modulators of P97 AAA ATPase activity” (University of Pittsburgh—Of the Commonwealth System of …, priority 2016, dated 2021)

Target: P97 (Homo sapiens (Human), UniProt P55072)
Experiment: P97 Biomolgreen ATPase assay, 200 μM ATP
Type: biochemical
Details: not given

Chain of P97 (P55072 whole entry): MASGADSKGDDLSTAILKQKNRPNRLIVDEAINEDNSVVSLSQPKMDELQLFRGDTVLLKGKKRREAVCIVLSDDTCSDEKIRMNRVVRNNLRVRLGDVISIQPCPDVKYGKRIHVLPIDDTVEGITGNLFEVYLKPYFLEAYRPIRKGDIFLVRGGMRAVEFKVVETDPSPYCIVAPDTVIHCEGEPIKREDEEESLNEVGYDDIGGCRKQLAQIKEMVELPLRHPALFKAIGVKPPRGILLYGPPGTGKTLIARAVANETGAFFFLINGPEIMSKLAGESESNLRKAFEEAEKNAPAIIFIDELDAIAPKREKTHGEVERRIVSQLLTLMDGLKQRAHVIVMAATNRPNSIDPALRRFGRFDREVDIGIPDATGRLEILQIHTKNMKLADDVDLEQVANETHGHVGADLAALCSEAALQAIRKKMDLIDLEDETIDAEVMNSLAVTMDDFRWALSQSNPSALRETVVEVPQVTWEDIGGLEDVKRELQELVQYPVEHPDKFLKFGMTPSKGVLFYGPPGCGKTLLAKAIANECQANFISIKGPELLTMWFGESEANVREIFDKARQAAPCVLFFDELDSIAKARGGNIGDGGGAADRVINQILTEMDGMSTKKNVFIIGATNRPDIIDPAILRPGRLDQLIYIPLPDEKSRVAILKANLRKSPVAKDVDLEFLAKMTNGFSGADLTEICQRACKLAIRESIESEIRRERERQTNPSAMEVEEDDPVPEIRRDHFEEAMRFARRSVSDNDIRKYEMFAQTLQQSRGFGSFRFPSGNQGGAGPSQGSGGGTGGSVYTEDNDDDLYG

Compound	P97 Biomolgreen; 200 μM ATP; IC50 (μM)
CCC(=O)NCC#Cc1ccc(OCc2nnc(SCC3CO3)n2-c2cccnc2)cc1C (stereo not shown) [Compound 129]	not active
CCC(=O)NCC#Cc1ccc(OCc2nnc(SC[C@@]3(C)CO3)n2-c2cccnc2)cc1C [Compound 130]	not active

Same assay, conditions: P97 Biomolgreen, IC50 (μM)

Compound	IC50
[2H]C1([2H])C([2H])([2H])C([2H])([2H])C([2H])(Sc2nnc(COc3ccc(C#CCO)c(C)c3)n2-c2cccnc2)C1([2H])[2H] [Compound 93]	0.048 µM
[2H]C1([2H])C([2H])([2H])C([2H])([2H])C([2H])(Sc2nnc(COc3ccc(C#CCOC(=O)NCCN4CCN(C(C)C)CC4)c(C)c3)n2-c2cccnc2)C1([2H])[2H] [Compound 100]	0.025 µM
[2H]C1([2H])C([2H])([2H])C([2H])([2H])C([2H])(Sc2nnc(COc3ccc(C#CCO)c(F)c3)n2-c2cccnc2)C1([2H])[2H] [Compound 105]	0.03 µM
[2H]C1([2H])C([2H])([2H])C([2H])([2H])C([2H])(Sc2nnc(COc3ccc(C#CCOC(=O)NC)c(F)c3)n2-c2cccnc2)C1([2H])[2H] [Compound 106]	0.02 µM
[2H]C([2H])(O)C#Cc1ccc(OCc2nnc(SC3([2H])C([2H])([2H])C([2H])([2H])C([2H])([2H])C3([2H])[2H])n2-c2cccnc2)cc1F [Compound 109]	0.03 µM
[2H]C1([2H])C([2H])([2H])C([2H])([2H])C([2H])(Sc2nnc(CNc3ccc(C#CCO)c(C)c3)n2-c2cccnc2)C1([2H])[2H] [Compound 117]	0.99 µM
[2H]C1([2H])C([2H])([2H])C([2H])([2H])C([2H])(Sc2nnc(COc3cc(F)c(C#CCO)cc3F)n2-c2cccnc2)C1([2H])[2H] [Compound 123]	0.021 µM
[2H]C1([2H])C([2H])([2H])C([2H])([2H])C([2H])(Sc2nnc(COc3cc(F)c(C#CCOC(=O)NC4CCN(C)CC4)cc3F)n2-c2cccnc2)C1([2H])[2H] [Compound 124]	0.01 µM
[2H]C1([2H])C([2H])([2H])C([2H])([2H])C([2H])(Sc2nnc(COc3ccc(C#CCOC(=O)NC4CCN(C)CC4)c(C)c3)n2-c2cccnc2)C1([2H])[2H] [Compound 125]	0.016 µM
[2H]C1([2H])C([2H])([2H])C([2H])([2H])C([2H])(Sc2nnc(COc3ccc(C#CCOC(=O)NC4CCN(C)CC4)c(F)c3)n2-c2cccnc2)C1([2H])[2H] [Compound 126]	0.016 µM
[2H]C1([2H])C([2H])([2H])C([2H])([2H])C([2H])(Sc2nnc(COc3ccc(C#CCOC(=O)OCC#Cc4ccc(OCc5nnc(SC6([2H])C([2H])([2H])C([2H])([2H])C([2H])([2H])C6([2H])[2H])n5-c5cccnc5)cc4C)c(C)c3)n2-c2cccnc2)C1([2H])[2H] [Compound 133]	0.91 µM

Same assay, conditions: read-out: P97 Biomolgreen, IC50

Compound	IC50
Cc1cc(OCc2nnc(CC3CCCC3)n2-c2cccnc2)ccc1C#CCOC(=O)NCCC(=O)N1CCN(C)CC1 [Compound 70]	0.098 µM
Cc1cc(OCc2nnc(SC3C=CCCC3)n2-c2cccnc2)ccc1C#CC1(O)CN(C(=O)OC(C)(C)C)C1 (stereo not shown) [Compound 72]	0.18 µM
Cc1cc(OCc2nnc(SC3C=CCCC3)n2-c2cccnc2)ccc1C#CCNC(=O)NCCN1CCN(C(C)C)CC1 (stereo not shown) [Compound 73]	0.052 µM
Cc1cc(OCc2nnc(SC3CCCC=C3F)n2-c2cccnc2)ccc1C#CCO (stereo not shown) [Compound 74]	0.51 µM
Cc1cc(OCc2nnc(SC3C=CCCC3)n2-c2cccnc2)ccc1C#CCOC(=O)N1CCN(C)CC1 (stereo not shown) [Compound 76]	0.03 µM
CN1CCN(CCNC(=O)OCC#Cc2ccc(OCc3nnc(SC4C=CCCC4)n3-c3cccnc3)cc2F)CC1 (stereo not shown) [Compound 77]	0.02 µM
Cc1cc(OCc2nnc(SC3C=CCCC3)n2-c2cccnc2)ccc1C#CCNS(=O)(=O)C1CCN(C(=O)OC(C)(C)C)CC1 (stereo not shown) [Compound 78]	0.09 µM
Cc1cc(OCc2nnc(SC3C=CCCC3)n2-c2cccnc2)ccc1C#CCO (stereo not shown) [Compound 79]	0.037 µM
Cc1cc(OCc2nnc(SC3CCCC=C3F)n2-c2cccnc2)ccc1C#CCOC(=O)NCCN1CCN(C)CC1 (stereo not shown) [Compound 80]	0.23 µM
Cc1cc(OCc2nnc(SC3CCCC=C3F)n2-c2cccnc2)ccc1C#CCOC(=O)NCCN1CCN(C(C)C)CC1 (stereo not shown) [Compound 81]	0.16 µM
CN1CCN(CCNC(=O)OCC#Cc2ccc(OCc3nnc(SC4C=CCCC4)n3-c3cccnc3)cc2C(F)(F)F)CC1 (stereo not shown) [Compound 82]	0.043 µM
CC(=O)NCC#Cc1ccc(OCc2nnc(SC3C=CCCC3)n2-c2cccnc2)cc1C (stereo not shown) [Compound 83]	0.046 µM
Cc1cc(OCc2nnc(SC3C=CCCC3)n2-c2cncc(Cl)c2)ccc1C#CCO (stereo not shown) [Compound 84]	2.11 µM
Cc1cc(OCc2nnc(SC3C=CCCC3)n2-c2cncc(Cl)c2)ccc1C#CCOC(=O)NCCN1CCN(C)CC1 (stereo not shown) [Compound 85]	0.934 µM
C=C(C)C(=O)NCC#Cc1ccc(OCc2nnc(SC3C=CCCC3)n2-c2cccnc2)cc1C (stereo not shown) [Compound 86]	0.06 µM
C/C=C/C(=O)NCC#Cc1ccc(OCc2nnc(SC3C=CCCC3)n2-c2cccnc2)cc1C (stereo not shown) [Compound 87]	0.058 µM
Cc1cc(OCc2nnc(SC3C=CCCC3)n2-c2cccnc2)ccc1C#CCNCCN(C)C (stereo not shown) [Compound 88]	0.06 µM
Cc1cc(OCc2nnc(SC3CCCC3)n2-c2cccnc2)ccc1C#CCO [Compound 89]	0.028 µM
Cc1cc(OCc2nnc(SC3C=CCCC3)n2-c2cccnc2)ccc1C#CCOC(=O)NCCN1CCN(C(C)C)CC1 (stereo not shown) [Compound 90]	0.084 µM
C=CC(=O)NCC#Cc1ccc(OCc2nnc(SC3C=CCCC3)n2-c2cccnc2)cc1C (stereo not shown) [Compound 92]	0.026 µM
CCC(=O)NCC#Cc1ccc(OCc2nnc(SC3C=CCCC3)n2-c2cccnc2)cc1C (stereo not shown) [Compound 94]	0.03 µM
Cc1cc(OCc2nnc(SC3C=CCCC3)n2-c2cccnc2)ccc1C#CCNC(=O)CCl (stereo not shown) [Compound 95]	0.03 µM
OCC#Cc1ccc(OCc2nnc(SC3C=CCCC3)n2-c2cccnc2)cc1F (stereo not shown) [Compound 97]	0.026 µM

Compound	IC50
Cc1cc(OCc2nnc(S(=O)(=O)C3C=CCCC3)n2-c2cccnc2)ccc1C#CCO (stereo not shown) [Compound 98]	4.82 µM
Cc1cc(OCc2nnc(OC3CCCC3)n2-c2cccnc2)ccc1C#CCO [Compound 99]	0.183 µM
Cc1cc(OCc2nnc(SC3C=CCCC3)n2-c2cccnc2)ccc1C#CCOC(=O)N1CCN(C(C)C)CC1 (stereo not shown) [Compound 101]	0.03 µM
CC(=O)N1CCN(C(=O)OCC#Cc2ccc(OCc3nnc(SC4C=CCCC4)n3-c3cccnc3)cc2C)CC1 (stereo not shown) [Compound 102]	0.03 µM
Cc1cc(OCc2nnc(SC3C=CCCC3)n2-c2cccnc2)ccc1C#CCNC(=O)C1CC1 (stereo not shown) [Compound 103]	0.03 µM
Cc1cc(C(=O)NCC#Cc2ccc(OCc3nnc(SC4C=CCCC4)n3-c3cccnc3)cc2C)no1 (stereo not shown) [Compound 104]	0.05 µM
CN1CCN(CCNC(=O)OCC#Cc2ccc(OCc3nnc(SC4C=CCCC4)n3-c3cccnc3)cc2F)CC1 (stereo not shown) [Compound 107]	0.013 µM
Cc1cc(OCc2nnc(SC3CCCC3)n2-c2cccnc2)ccc1C#CCOC(=O)NCCNC(=O)CC1[C@H]2CC3C[C@H](C2)C[C@H]1C3 (stereo partly shown) [Compound 110]	0.06 µM
Cc1cc(OCc2nnc(SC3CCCC3)n2-c2cccnc2)ccc1C#CCOC(=O)NCCOCCNC(=O)CC1[C@H]2C[C@@H]3C[C@@H](C[C@H]1C3)C2 (stereo partly shown) [Compound 111]	0.03 µM
CCC(=O)NCC#Cc1ccc(OCc2nnc(SC3C=CCCC3)n2-c2cccnc2)cc1C (stereo not shown) [Compound 112]	0.025 µM
OCC#Cc1ccc(OCc2nnc(SC3C=CCCC3)n2-c2cccnc2)c(F)c1F (stereo not shown) [Compound 113]	0.04 µM
OCC#Cc1cc(F)c(OCc2nnc(SC3C=CCCC3)n2-c2cccnc2)cc1F (stereo not shown) [Compound 114]	0.02 µM
N#Cc1cc(OCc2nnc(SC3C=CCCC3)n2-c2cccnc2)ccc1C#CCO (stereo not shown) [Compound 115]	0.1 µM
COc1cc(C#CCO)c(F)cc1OCc1nnc(SC2C=CCCC2)n1-c1cccnc1 (stereo not shown) [Compound 116]	0.04 µM
CN1CCC(NC(=O)OCC#Cc2ccc(OCc3nnc(SC4C=CCCC4)n3-c3cccnc3)c(F)c2F)CC1 (stereo not shown) [Compound 118]	0.017 µM
CN1CCC(NC(=O)OCC#Cc2c(F)cc(OCc3nnc(SC4C=CCCC4)n3-c3cccnc3)cc2F)CC1 (stereo not shown) [Compound 120]	0.012 µM
COc1cc(C#CCOC(=O)NC2CCN(C)CC2)c(F)cc1OCc1nnc(SC2C=CCCC2)n1-c1cccnc1 (stereo not shown) [Compound 122]	0.019 µM
C#Cc1ccc(OCc2nnc(SC3C=CCCC3)n2-c2cccnc2)cc1C (stereo not shown) [Compound 127]	0.038 µM
Cc1cc(OCc2nnc(SCC3CC3)n2-c2cccnc2)ccc1C#CCO [Compound 128]	0.13 µM
C=CCSc1nnc(COc2ccc(C#CCNC(=O)CC)c(C)c2)n1-c1cccnc1 [Compound 131]	0.33 µM
CCC(=O)NCC#Cc1ccc(OCc2nnc(SCC(=O)CCl)n2-c2cccnc2)cc1C [Compound 132]	2.77 µM
Cc1cc(OCc2nnc(SC3C=CCCC3)n2-c2cccnc2)ccc1C#CCNC(=O)NCC#Cc1ccc(OCc2nnc(SC3C=CCCC3)n2-c2cccnc2)cc1C (stereo not shown) [Compound 134]	0.25 µM
